# Source: ChEMBL document CHEMBL1153711, “Synthesis and antimycobacterial evaluation of novel 5,6-dimethoxy-1-oxo-2,5-dihydro-1H-2-indenyl-5,4-substituted phenyl methanone analogues” (Bioorg Med Chem Lett, 2009)
# Tested on: Mycobacterium tuberculosis
# Experiment: Antimycobacterial activity against isoniazid-resistant Mycobacterium tuberculosis by agar dilution method
# Type: functional
row,Structure (SMILES),MIC
1,COc1cc2c(cc1OC)C(=O)C(C(=O)c1ccc(N(C)C)cc1)C2 (stereo not drawn),8.78 µM
2,COc1ccc(C(=O)C2Cc3cc(OC)c(OC)cc3C2=O)cc1OC (stereo not drawn),> 6.25 µM
3,COc1cc2c(cc1OC)C(=O)C(C(=O)c1ccccc1)C2 (stereo not drawn),11.6 µM
4,COc1ccc(C(=O)C2Cc3cc(OC)c(OC)cc3C2=O)cc1 (stereo not drawn),> 6.25 µM
5,COc1cc2c(cc1OC)C(=O)C(C(=O)c1cc(OC)c(OC)c(OC)c1)C2 (stereo not drawn),> 6.25 µM
6,COc1cc2c(cc1OC)C(=O)C(C(=O)c1ccc(Cl)cc1)C2 (stereo not drawn),8.2 µM
7,COc1cc2c(cc1OC)C(=O)C(C(=O)c1ccccc1Cl)C2 (stereo not drawn),3.72 µM
8,NNC(=O)c1ccncc1 [ISONIAZID],11.6 µM
9,COc1cc2c(cc1OC)C(=O)C(C(=O)c1ccc(F)cc1)C2 (stereo not drawn),0.1 µM
10,COc1cc2c(cc1OC)C(=O)C(C(=O)c1c(Cl)cccc1Cl)C2 (stereo not drawn),4.96 µM
11,COc1cc2c(cc1OC)C(=O)C(C(=O)c1ccc(Br)cc1)C2 (stereo not drawn),11.7 µM
12,COc1cc2c(cc1OC)C(=O)C(C(=O)c1cccc([N+](=O)[O-])c1)C2 (stereo not drawn),8.72 µM
13,COc1cc2c(cc1OC)C(=O)C(C(=O)c1ccc(C#N)cc1)C2 (stereo not drawn),> 6.25 µM
